Source: US8530478B2, “Piperazine derivatives used as CAV2.2 calcium channel modulators” (Convergence Pharmaceuticals Limited, priority 2008, dated 2013)
Counter-ions that a name gives are not always drawn.

Biological target: T1, hCav2.2 (Homo sapiens, UniProt Q00975)
T1 construct: expressed in transfected cells; plasmids pCIN5-hCav2.2, pCIH-hCav β3, pCIP-α2δ1
Assay: hCav2.2 assay (IonWorks planar array electrophysiology, HEK293 stable cell line)
Format: cell-based
Conditions: inhibition of current elicited by the 1st depolarising pulse; HEK293 cells expressing human Cav2.2 α/β3/α2δ1; tested in the form described in the Examples; read-out: mean pIC50 (tonic pIC50) (converted)
Method: Compounds of the invention may be tested for in vitro biological activity in the hCav2.2 assay in accordance with the following studies:
Stable cell lines expressing the human Cav2.2 α (α1B) subunit, along with the human β3 and α2δ1 auxiliary subunits were created following sequential transfection and selection of human embryonic kidney (HEK293) cells. HEK293 cells were cultured in Dulbecco's modified Eagles media/F12 media (Invitrogen, Cat # 041-95750V) containing 10% foetal bovine serum, with added L-glutamine (2 mM; Invitrogen, Cat # 25030-024) and non-essential amino acids (5%; Invitrogen, Cat # 11140-035). Initially HEK293 cells were transfected with two plasmid vectors for expression of the hCav2.2 α subunit (pCIN5-hCav2.2 which carries a neomycin resistance marker) and the hCav β3 subunit (pCIH-hCav β3 which carries a hygromycin resistance marker). Clonal cell lines were isolated following selection in media supplemented with 0.4 mg ml^−1 Geneticin G418 (Invitrogen, Cat # 10131-027) and 0.1 mg ml^−1 hygromycin (Invitrogen, Cat # 10687-010). These clonal cell lines were assessed for Cav2.2 α/β3-mediated current expression using the IonWorks planar array electrophysiology technology (described below). A clonal line was identified that gave a reasonable level of functional Cav2.2 α/β3 current expression. This cell line was transfected with a plasmid vector for expression of the human α2δ1 subunit (pCIP-α2δ1 which carries a puromycin resistance marker) and clonal cell lines isolated following selection in media containing 0.62 μg ml^−1 puromycin (Sigma, Cat # P-7255), in addition to 0.4 mg ml^−1 Geneticin G418 and 0.1 mg ml^−1 hygromycin. Several cell lines were identified that gave robust levels of Cav2.2 α/β3/α2δ1-mediated current expression and one of these was selected for compound profiling. Expression of all three subunits within this cell line was continuously maintained by the inclusion of G418 (0.4 mg ml^−1), hygromycin (0.1 mg ml^−1) and puromycin (0.62 μg ml^−1). Cells were maintained at 37° C. in a humidified environment containing 5% CO2 in air. Cells were liberated from the T175 culture flasks for passage and harvesting using TrpLE (Invitrogen, Cat # 12604-013).
Cells were grown to 30-60% confluence in T175 flasks and maintained at 30° C. for 24 hrs prior to recording. Cells were lifted by removing the growth media, washing with Ca^2+ free PBS (Invitrogen, Cat #14190-094) and incubating with 3 ml of warmed (37° C.) TrpLE (Invitrogen, Cat # 12604-013) for 6 minutes. Lifted cells were suspended in 10 ml of extracellular buffer. Cell suspension was then placed into a 15 ml tube and centrifuged for 2 minutes at 700 rpm. After centrifugation, the supernatant was removed and the cell pellet was resuspended in 4.5 ml of extracellular solution.
Currents were recorded at room temperature (21-23° C.) using the IonWorks planar array electrophysiology technology (Molecular Devices Corp.). Stimulation protocols and data acquisition were carried out using a microcomputer (Dell Pentium 4). In order to determine planar electrode hole resistances (Rp), a 10 mV, 160 ms potential difference was applied across each hole. These measurements were performed before cell addition. After cell addition a seal test was performed prior to antibiotic (amphotericin) circulation to achieve intracellular access. Leak subtraction was conducted in all experiments by applying a 160 ms hyperpolarizing (10 mV) prepulse 200 ms before the test pulses to measure leak conductance. Test pulses stepping from the holding potential (VH) of −90 mV to +10 mV were applied for 20 ms and repeated 10 times at a frequency of 10 Hz. In all experiments, the test pulse protocol was performed in the absence (pre-read) and presence (post-read) of a compound. Pre- and post-reads were separated by a compound addition followed by a 3-3.5 min incubation. […]

T1 sequence (Q00975 whole entry): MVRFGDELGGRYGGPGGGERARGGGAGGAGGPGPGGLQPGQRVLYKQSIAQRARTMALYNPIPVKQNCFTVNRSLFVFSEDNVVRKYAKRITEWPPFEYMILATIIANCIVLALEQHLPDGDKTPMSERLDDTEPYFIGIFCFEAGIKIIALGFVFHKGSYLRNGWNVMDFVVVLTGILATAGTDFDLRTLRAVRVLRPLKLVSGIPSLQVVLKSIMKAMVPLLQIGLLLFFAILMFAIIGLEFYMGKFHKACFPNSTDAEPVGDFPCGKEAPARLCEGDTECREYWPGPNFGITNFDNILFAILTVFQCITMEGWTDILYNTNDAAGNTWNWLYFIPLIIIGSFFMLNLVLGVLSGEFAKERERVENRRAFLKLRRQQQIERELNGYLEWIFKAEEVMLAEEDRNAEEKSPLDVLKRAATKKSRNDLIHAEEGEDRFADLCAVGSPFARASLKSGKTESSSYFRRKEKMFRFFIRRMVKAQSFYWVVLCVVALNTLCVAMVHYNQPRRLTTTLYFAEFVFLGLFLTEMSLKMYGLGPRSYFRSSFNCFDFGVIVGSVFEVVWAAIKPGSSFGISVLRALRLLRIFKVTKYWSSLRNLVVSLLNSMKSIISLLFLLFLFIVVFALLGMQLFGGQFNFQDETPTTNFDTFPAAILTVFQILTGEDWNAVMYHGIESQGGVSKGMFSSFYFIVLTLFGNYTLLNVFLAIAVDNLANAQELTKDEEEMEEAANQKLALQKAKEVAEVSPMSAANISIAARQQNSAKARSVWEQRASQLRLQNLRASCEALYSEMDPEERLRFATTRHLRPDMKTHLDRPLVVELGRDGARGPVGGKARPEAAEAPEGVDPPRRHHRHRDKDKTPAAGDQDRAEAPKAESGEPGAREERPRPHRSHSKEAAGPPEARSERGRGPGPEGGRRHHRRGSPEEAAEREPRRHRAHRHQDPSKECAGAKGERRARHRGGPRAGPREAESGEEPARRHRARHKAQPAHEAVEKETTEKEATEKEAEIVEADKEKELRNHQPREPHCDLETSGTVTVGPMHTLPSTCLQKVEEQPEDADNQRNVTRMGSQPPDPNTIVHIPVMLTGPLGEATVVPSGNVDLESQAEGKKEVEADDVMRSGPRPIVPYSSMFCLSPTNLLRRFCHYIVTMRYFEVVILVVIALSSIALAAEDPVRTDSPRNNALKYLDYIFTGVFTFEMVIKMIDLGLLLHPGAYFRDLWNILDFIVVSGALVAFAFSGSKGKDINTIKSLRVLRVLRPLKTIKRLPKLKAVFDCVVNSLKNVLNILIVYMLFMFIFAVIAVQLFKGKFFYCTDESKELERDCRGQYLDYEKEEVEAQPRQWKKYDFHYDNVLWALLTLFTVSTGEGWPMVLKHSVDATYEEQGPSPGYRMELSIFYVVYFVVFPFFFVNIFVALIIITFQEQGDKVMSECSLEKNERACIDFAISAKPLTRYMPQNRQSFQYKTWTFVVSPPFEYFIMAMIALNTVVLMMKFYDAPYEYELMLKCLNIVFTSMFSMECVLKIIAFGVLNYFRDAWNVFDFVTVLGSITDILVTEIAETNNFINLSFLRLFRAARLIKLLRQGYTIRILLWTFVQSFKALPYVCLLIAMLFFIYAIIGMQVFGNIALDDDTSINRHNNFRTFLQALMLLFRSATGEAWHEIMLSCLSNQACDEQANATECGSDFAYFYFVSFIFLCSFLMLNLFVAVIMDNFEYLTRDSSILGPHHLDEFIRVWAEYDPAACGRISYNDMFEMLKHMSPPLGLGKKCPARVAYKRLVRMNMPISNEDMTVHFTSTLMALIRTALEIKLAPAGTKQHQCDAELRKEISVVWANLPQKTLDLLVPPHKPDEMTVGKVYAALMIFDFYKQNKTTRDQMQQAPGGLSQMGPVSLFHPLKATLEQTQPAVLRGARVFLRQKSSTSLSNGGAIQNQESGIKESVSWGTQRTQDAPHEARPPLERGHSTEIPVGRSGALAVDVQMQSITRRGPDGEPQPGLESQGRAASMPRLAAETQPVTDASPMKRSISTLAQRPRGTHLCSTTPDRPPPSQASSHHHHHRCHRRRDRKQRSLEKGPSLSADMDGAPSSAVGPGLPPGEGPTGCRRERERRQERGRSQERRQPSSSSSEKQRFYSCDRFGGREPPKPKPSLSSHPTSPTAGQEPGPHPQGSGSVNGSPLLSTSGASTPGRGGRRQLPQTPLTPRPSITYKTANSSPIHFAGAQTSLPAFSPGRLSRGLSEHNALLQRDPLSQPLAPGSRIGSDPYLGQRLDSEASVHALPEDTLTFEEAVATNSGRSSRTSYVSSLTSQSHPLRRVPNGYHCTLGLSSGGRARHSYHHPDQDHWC
T1 sequence (P54284 whole entry partner): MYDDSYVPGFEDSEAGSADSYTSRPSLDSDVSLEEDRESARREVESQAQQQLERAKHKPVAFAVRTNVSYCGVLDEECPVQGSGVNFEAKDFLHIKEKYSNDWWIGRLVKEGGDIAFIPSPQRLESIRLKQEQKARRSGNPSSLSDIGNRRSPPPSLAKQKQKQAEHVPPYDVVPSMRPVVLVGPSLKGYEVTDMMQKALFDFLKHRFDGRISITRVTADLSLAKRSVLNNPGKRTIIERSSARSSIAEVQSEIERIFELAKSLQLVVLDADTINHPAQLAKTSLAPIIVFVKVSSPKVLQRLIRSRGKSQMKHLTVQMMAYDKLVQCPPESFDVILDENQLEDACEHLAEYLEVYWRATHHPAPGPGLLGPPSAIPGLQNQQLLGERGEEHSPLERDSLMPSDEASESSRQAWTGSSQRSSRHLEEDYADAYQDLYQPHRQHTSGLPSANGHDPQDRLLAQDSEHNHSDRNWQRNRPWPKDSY
T1 sequence (P54289 25-956 partner): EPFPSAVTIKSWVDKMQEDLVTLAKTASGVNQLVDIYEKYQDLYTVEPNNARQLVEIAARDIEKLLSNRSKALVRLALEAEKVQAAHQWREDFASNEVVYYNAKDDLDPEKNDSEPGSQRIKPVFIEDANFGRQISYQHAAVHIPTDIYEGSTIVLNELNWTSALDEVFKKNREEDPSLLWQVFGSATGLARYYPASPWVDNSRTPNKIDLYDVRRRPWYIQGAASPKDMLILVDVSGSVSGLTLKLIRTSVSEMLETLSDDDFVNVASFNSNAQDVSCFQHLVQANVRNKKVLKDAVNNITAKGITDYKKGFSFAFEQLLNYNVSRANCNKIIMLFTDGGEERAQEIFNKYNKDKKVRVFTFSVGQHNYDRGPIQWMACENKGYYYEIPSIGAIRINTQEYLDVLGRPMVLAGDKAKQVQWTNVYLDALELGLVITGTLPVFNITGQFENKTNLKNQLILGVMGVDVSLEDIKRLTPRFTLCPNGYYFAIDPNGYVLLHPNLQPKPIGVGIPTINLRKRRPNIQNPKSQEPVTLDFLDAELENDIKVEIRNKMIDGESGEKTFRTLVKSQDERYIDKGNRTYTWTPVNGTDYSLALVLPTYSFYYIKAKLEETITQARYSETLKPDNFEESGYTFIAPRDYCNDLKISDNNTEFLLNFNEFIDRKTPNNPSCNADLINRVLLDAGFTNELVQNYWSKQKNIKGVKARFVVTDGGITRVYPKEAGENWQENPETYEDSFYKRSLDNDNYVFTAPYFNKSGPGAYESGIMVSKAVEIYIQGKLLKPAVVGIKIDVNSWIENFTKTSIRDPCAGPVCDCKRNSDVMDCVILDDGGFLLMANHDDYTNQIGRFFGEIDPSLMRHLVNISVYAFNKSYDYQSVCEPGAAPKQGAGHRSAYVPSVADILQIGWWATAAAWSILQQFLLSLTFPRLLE
T1 sequence (P54289 957-1103 partner): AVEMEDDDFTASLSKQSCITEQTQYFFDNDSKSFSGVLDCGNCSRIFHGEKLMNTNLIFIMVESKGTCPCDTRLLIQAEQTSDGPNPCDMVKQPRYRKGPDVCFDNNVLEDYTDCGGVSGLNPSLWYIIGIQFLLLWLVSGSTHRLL

IC50, ≥ 31.6 µM:
Cc1cccnc1C(=O)N1CCN(S(=O)(=O)c2ccc(C(F)(F)F)cc2)C[C@@H]1C [Example 1, (2S)-2-Methyl-1-[(3-methyl-2-pyridinyl)carbonyl]-4-{[4-(trifluoromethyl)phenyl]sulfonyl}piperazine hydrochloride]
O=C(c1cc(-c2ccccn2)ccn1)N1CCN(S(=O)(=O)c2ccc(C(F)(F)F)cc2)CC1 [Example 5, 2′-[(4-{[4-(Trifluoromethyl)phenyl]sulfonyl}-1-piperazinyl)carbonyl]-2,4′-bipyridine]
Cc1cc(C(=O)N2CCN(S(=O)(=O)c3ccc(C(F)(F)F)cc3)C[C@@H]2C)ccn1 [Example 10, (2S)-2-methyl-1-[(2-methyl-4-pyridinyl)carbonyl]-4-{[4-(trifluoromethyl)phenyl]sulfonyl}piperazine formic acid salt (1:1)]
C[C@@H]1CN(S(=O)(=O)c2ccc(Cl)cc2)CCN1C(=O)c1ccccn1 [Example 11, (2R)-4-[(4-chlorophenyl)sulfonyl]-2-methyl-1-(2-pyridinylcarbonyl)piperazine]
Cc1cc(C(=O)N2CCN(S(=O)(=O)c3ccc(C(F)(F)F)cc3)CC2)ccn1 [Example 9, 1-[(2-Methyl-4-pyridinyl)carbonyl]-4-{[4-(trifluoromethyl)phenyl]sulfonyl}piperazine]
O=C(c1ccc(-c2ccccn2)cn1)N1CCN(S(=O)(=O)c2ccc(C(F)(F)F)cc2)CC1 [Example 7, 6′[(4-{[4-(Trifluoromethyl)phenyl]sulfonyl}-1-piperazinyl)carbonyl]-2,3′-bipyridine]
C[C@H]1CN(C(=O)c2ccccn2)CCN1S(=O)(=O)c1ccc(Cl)cc1 [Example 6, (2S)-1-[(4-Chlorophenyl)sulfonyl]-2-methyl-4-(2-pyridinylcarbonyl)piperazine hydrochloride]
Cc1cc(C(=O)N2CCN(S(=O)(=O)c3ccc(C#N)cc3)C[C@@H]2C)ccn1 [Example 15, 4-({(3S)-3-methyl-4-[(2-methyl-4-pyridinyl)carbonyl]-1-piperazinyl}sulfonyl)benzonitrile]
Cc1cccnc1C(=O)N1CCN(S(=O)(=O)c2ccc(C(F)(F)F)cc2)CC1 [Example 3, 1-[(3-Methyl-2-pyridinyl)carbonyl]-4-{[4-(trifluoromethyl)phenyl]sulfonyl}piperazine]
Cc1cccnc1C(=O)N1CCN(S(=O)(=O)c2ccc(C(F)(F)F)cc2)[C@@H](C)C1 [Example 14, (2S)-2-methyl-4-[(3-methyl-2-pyridinyl)carbonyl]-1-{[4-(trifluoromethyl)phenyl]sulfonyl}piperazine]
C[C@H]1CN(S(=O)(=O)c2ccc(C#N)cc2)CCN1C(=O)c1ccccn1 [Example 12, 4-{[(3S)-3-methyl-4-(2-pyridinylcarbonyl)-1-piperazinyl]sulfonyl}benzonitrile]
O=C(c1ccncc1)N1CCN(S(=O)(=O)c2ccc(C(F)(F)F)cc2)CC1 [Example 8, 1-(4-Pyridinylcarbonyl)-4-{[4-(trifluoromethyl)phenyl]sulfonyl}piperazine]
Cc1cccnc1C(=O)N1CCN(S(=O)(=O)c2ccc(C(F)(F)F)cc2)[C@H](C)C1 [Example 13, (2R)-2-methyl-4-[(3-methyl-2-pyridinyl)carbonyl]-1-{[4-(trifluoromethyl)phenyl]sulfonyl}piperazine]
C[C@H]1CN(S(=O)(=O)c2ccc(C(F)(F)F)cc2)CCN1C(=O)c1ccccn1 [Example 4, (2S)-2-methyl-1-(2-pyridinylcarbonyl)-4-{[4-(trifluoromethyl)phenyl]sulfonyl}piperazine formic acid salt (1:1)]
Cc1cccc(C(=O)N2CCN(S(=O)(=O)c3ccc(C(F)(F)F)cc3)CC2)n1 [Example 2, 1-[(6-Methyl-2-pyridinyl)carbonyl]-4-{[4-(trifluoromethyl)phenyl]sulfonyl}piperazine]
